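The concentration for 50% growth inhibition is given as GI50. At the TGI there is no net growth.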
What was measured:
Test in all cases: NCI anticancer screen, dose series, 384-well format
[1] = tested on: U251 glioblastoma
[2] = tested on: MDA-MB-468 breast
[3] = tested on: OVCAR-4 ovarian
[4] = tested on: SK-MEL-28 melanoma
[5] = tested on: NCI-H460 NSCLC
[6] = tested on: SF-539 CNS
[7] = tested on: HOP-92 NSCLC
[8] = tested on: SNB-19 CNS
[9] = tested on: UACC-257 melanoma
[10] = tested on: UO-31 renal
[11] = tested on: RPMI-8226 leukemia
[12] = tested on: MDA-MB-231 breast
[13] = tested on: SW-620 colon

With NC(=O)c1nc(-c2c(F)cccc2Cl)oc1Nc1ccc(C(=O)N2CCOCC2)cc1 the GI50 [1] was 2.59 µM, the TGI [1] was 16 µM and the GI50 [2] was 1.5 µM. It also gave a TGI [2] of 4.23 µM, a GI50 [3] of 2.09 µM and a TGI [3] of 6.3 µM. The GI50 [4] was 14.2 µM, the TGI [4] was over 90.9 µM and the GI50 [5] was 0.395 µM. The TGI [5] was 10.6 µM, the GI50 [6] was 1.45 µM and the TGI [6] was 7.64 µM. It also gave a GI50 [7] of 0.576 µM, a TGI [7] of 2.35 µM and a GI50 [8] of 3.46 µM. For the same compound, the TGI [8] was 24.9 µM, the GI50 [9] was 23.1 µM and the TGI [9] was over 54.8 µM. It also gave a GI50 [10] of 0.171 µM, a TGI [10] of 0.322 µM and a GI50 [11] of 0.444 µM. The TGI [11] was 4.28 µM, the GI50 [12] was 1.34 µM and the TGI [12] was 5.94 µM. For the same compound, the GI50 [13] was 0.48 µM and the TGI [13] was 3.37 µM.

From PubChem BioAssay (NCI)
